The target in experiment [1] is T1, 20 S human housekeeping proteasome (Homo sapiens, UniProt P25787+P25789).
T1 construct: purified from erythrocytes; purchased Enzo Life Sciences, Inc. (Farmingdale, N.Y.); host or cells: human erythrocytes
Nature of the experiment: ChT-L peptidase activity of 20 S proteasome activated with Rpt5 peptide. In kind it is biochemical. The procedure:
Human housekeeping 20 S and 26 S and complexes purified from erythrocytes were purchased from Enzo Life Sciences, Inc. (Farmingdale, N.Y.). The 1 mg/ml stock 20 S proteasome was diluted to 0.2 mg/ml working solution in 50 mM Tris/HCl, pH 8 containing 20% glycerol (dilution buffer). For the 26 S proteasome stock, the dilution buffer was supplemented with 2 mM ATP, 1 mM MgCl2, and 1 mM DTT (dithiothreitol). The ChT-L peptidase activity was measured as arbitrary intensity units of fluorescence emitted by 7-amino-4-methylcoumarin (AMC) released from the canonical model peptide substrate succinyl-LeuLeuValTyr-methylcoumarin (SucLLVY-MCA; Bachem Bioscience Inc., Philadelphia, Pa.), used at concentration of 100 μM. Free AMC (Sigma-Aldrich, St. Louis, Mo.) was used as the standard. The Rpt5 C-terminal peptide was synthesized (standard solid-phase peptide chemistry) and purified to at least 98% purity by GenScript (Piscataway, N.J.). The Rpt5 peptide and the peptide substrate were dissolved in dimethylsulfoxide (DMSO) and such stock solutions were stored at −20° C. The total concentration of DMSO in final reaction mixtures never exceeded 3% (vol/vol).
The reaction was carried out in 96-well plates, in 100 μL of reaction mixture, for 1 hour at 37° C. In the case of 20 S proteasome, the reaction mixture consisted of 45 mM Tris/HCl, pH 8, 100 mM KCl with premixed 10 μM Rpt5 peptide and 100 μM Suc-LLVY-MCA, to which 200 ng (nearly […]) of proteasome and desired concentration of tested compounds in 1 μL of DMSO were added. To test the activity of 26 S proteasome under conditions challenging coordination of the three pairs of peptidase active centers, a mixture of three canonical substrates specific for the ChT-L (SucLLVY-MCA), trypsin-like (T-L; BocLRR-MCA) and caspase-like (Casp-L; Z-LLE-MCA) was used with each of the substrates at 33.3 μM (100 μM of the total substrate concentration). The reaction mixture in this case consisted of 50 mM Tris/HCl, pH 8, 20 mM NaCl, premixed with the substrates and 2 mM ATP, to which 200 ng (nearly 0.1 nmol) of the 26 S working solution and desired concentration of tested compounds in 0.5 μL of DMSO were added. The reaction rates were calculated from a linear segment of kinetic curves constructed from measurements in 1-minutes intervals (Fluoroskan Ascent plate reader; Thermo Fisher Scientific Inc., Waltham, Mass.). Reaction rates were calculated using a linear fit executed by Slope Analyzer and Enzyme Kinetics applications launched within Origin Pro 2017 (OriginLab). Specific activity of the control 20 S proteasome activated with the Rpt5 peptide was in the range of 1.4 to 2.3 nanomoles of AMC product released by 1 mg of 20 S per second (1.95±0.24; n=18). Specific activity of the control 26 S proteasome challenged with three substrates reached on average 0.28±0.06 nanomoles of AMC product released by 1 mg of the enzyme per second (n=6). For comparison, degradation of the canonical Suc-LLVY-MCA substrate by the control 26 S proteasome preceded with a rate in the range of 0.6-0.8 nanomoles of AMC released per mg of the enzyme per second. The data are presented as mean±SD or as a representative set from at least 3 independent experiments.
The compounds were evaluated using the 20 S human housekeeping proteasome. It was activated with the Rpt5 derived 10-residue peptide that contains the C-terminal HbYX (hydrophobic-Tyr-any AA) motif activating the proteasome in trans and to some extend mimic the activation by the 19 S regulatory particle (Osmulski and Gaczynska (2013) Molecular pharmacology 84: 104-113; Smith et al. (2006) J. Struct. Biol. 156: 72-83; Smith et al. (2007) Mol. Cell 27: 731-744). Proteolytic activity was monitored over time using a fluorogenic peptide substrate specific for the chymotrypsin-like active center (ChT-L, Suc-LLVY-AMC) in the presence of a concentration range of the inhibitors. […]

The target in experiment [2] is T2, 20 S proteasome (Homo sapiens, UniProt P25787+P25789).
T2 construct: purified from erythrocytes; purchased Enzo Life Sciences, Inc. (Farmingdale, N.Y.); host or cells: human erythrocytes
Put plainly: T-L peptidase activity of tRpt5-activated 20 S core. As to conditions: core activated with tRpt5. In kind it is biochemical.

Experimental findings from US11345659B2, “Pipecolic esters for inhibition of the proteasome” (THE BOARD OF REGENTS OF THE UNIVERSY OF TEXAS SYSTEM, priority 2018, dated 2022) are described below.

Like-named read-outs stand apart in the source and are kept apart here.

The term IC50 denotes the concentration that gives 50% inhibition. Turning to `COc1cc(CCCOC(=O)[C@@H]2CCCCN2C(=O)OCc2ccccc2)cc(OC)c1OC` [Compound 3, 1-benzyl 2-(3-(3,4,5-trimethoxyphenyl)propyl) (S)-piperidine-1,2-dicarboxylate], the IC50 in experiment [1] (ChT-L, Suc-LLVY-AMC substrate, 20 S activated with Rpt5 peptide, read-out: IC50) was 2 µM; in experiment [1] (summary of FIG. 3A and FIG. 3B, read-out: in vitro determined IC50 values for peptidase activities), 2 to 3 µM. Also, in experiment [1] (tRpt5 added first, n=3), the “remaining ChT-L activity” value is given as 53%±7%. The “effect on T-L peptidase” value in experiment [2] is “not affected”.
